{
  "source": "patent US9527859B2",
  "about": "“Amidopyridine derivative and use thereof” (Mitsubishi Tanabe Pharma Corporation, priority 2012, dated 2016)",
  "system": "Salmonella typhimurium TA104 strain",
  "format": "cell-based",
  "experimental": "Genotoxicity Test Using Salmonella typhimurium TA104 Strain Carrying a Reporter Gene Under the Control of DNA Repair Enzyme recN (Vitotox Test)\nTo prepare agents for stock of tester strain, Amp solution (50 mg/mL) and Tet solution (10 mg/mL) were prepared, and then LB-agar plate (35 mg/mL+Amp (100 μg/mL)+Tet ([…])) was prepared, and LB medium (20 mg/mL+Amp (100 μg/mL)+Tet (20 μg/mL)) was prepared. Then, LB medium for pre-incubation (10 mg/mL), LB medium for test (4 mg/mL) and enhancer reagent (50 mg (CaCl2.H2O)/mL) were prepared.\nFreezing stock of bacterial strain was thawed to be streaked on LB-agar plate, and incubated in an incubator (TITEC, BIO-SHAKER BR-15) at 37° C. overnight. […]\nA solution for positive control was prepared as below. […] When the test compound was completely dissolved, the highest concentration as prepared was determined to be a highest dose, and when a precipitate was found, a homogeneous suspension which was able to be pipetted was determined to be a highest dose.\nAfter a fluorescent and luminescent photometer (Thermo Labsystem, Fluoroskan Ascent FL), plate and medium for test were set up, Genox and Cytox reaction solutions were prepared as below. Dilution factor as well as requisite amounts for medium for test, pre-incubation strain solution, Enhancer Reagent and S9 mix were calculated so that OD590 was set as about 0.03 for each culture solution. […]",
  "data": [
    {"smiles": "Nc1cnc(N2CCC(O)CC2)c(C2CC2)c1", "note": "[1-(5-amino-3-cyclopropylpyridin-2-yl)piperidin-4-ol]", "values": [
      {"measurement": "Genotoxicity (Vitotox test)", "result": "negative"}
    ]}
  ]
}
